Experimental data reported in ChEMBL document CHEMBL1687887, “Evolution of potent and stable placental-growth-factor-1-targeting CovX-bodies from phage display peptide discovery” (J Med Chem, 2011).
Bridge positions count the residues as written; N and C are the ends. Square brackets hold non-standard residues; d marks the D form. Peptide text beside a SMILES is read from it. * marks the point of attachment. X1 = O=C(COCC(=O)*)Nc1ccc(CCC(=O)N2CCC2=O)cc1; Aad = N[C@@H](CCCC(=O)O)C(=O)O

What was measured:
[1] = target: T1, Placenta growth factor (Homo sapiens, UniProt P49763); assay: Binding affinity to human PlGF-1; conditions: read-out: Kd
T1 sequence (P49763 whole entry): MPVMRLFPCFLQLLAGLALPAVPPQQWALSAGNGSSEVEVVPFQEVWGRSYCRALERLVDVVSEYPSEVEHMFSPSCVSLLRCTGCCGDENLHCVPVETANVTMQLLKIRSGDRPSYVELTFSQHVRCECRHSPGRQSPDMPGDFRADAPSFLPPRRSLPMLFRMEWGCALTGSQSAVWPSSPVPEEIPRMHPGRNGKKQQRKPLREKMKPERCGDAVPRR

[2] = target: T2, Placenta growth factor (Mus musculus, UniProt P49764); assay: Inhibition of mouse PlGF-VEGFR-1 interaction by ELISA
T2 sequence (P49764 whole entry): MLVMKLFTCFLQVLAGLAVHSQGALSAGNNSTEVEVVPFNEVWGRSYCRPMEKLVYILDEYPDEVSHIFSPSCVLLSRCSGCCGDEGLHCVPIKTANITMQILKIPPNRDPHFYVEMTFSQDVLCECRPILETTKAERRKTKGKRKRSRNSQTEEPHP

[3] = Stability in Swiss Webster mouse serum assessed as functional compound remaining after 6 hrs; type: ADME, cell-free; conditions: read-out: Stability
[4] = target: T1, Placenta growth factor; assay: Inhibition of human PlGF-1-VEGFR-1 interaction by ELISA

SMILES	Kd [1] [nM]	IC50 [2] [nM]	remaining at 6 h [3] [%]	IC50 [4] [nM]
CSCC[C@H](NC(=O)[C@@H](NC(=O)[C@H](CCCCNC(C)=O)NC(=O)[C@@H]1CSSC[C@H](NC(=O)[C@@H](NC(=O)[C@H](CC(=O)O)NC(=O)[C@H](Cc2ccccc2)NC(C)=O)C(C)C)C(=O)N[C@@H](CC(N)=O)C(=O)N[C@@H](Cc2c[nH]c3ccccc23)C(=O)N[C@@H](C(C)C)C(=O)N[C@@H]([C@@H](C)O)C(=O)N[C@@H](CC(C)C)C(=O)N2CCC[C@H]2C(=O)N[C@@H](CCCCNC(=O)COCC(=O)Nc2ccc(CCC(=O)N3CCC3=O)cc2)C(=O)N1)C(C)C)C(N)=O (Ac-FDVCNWVTLPK(X1)CK(Ac)VM-NH2; disulfide 4-12)	> 1000	> 1000		
CSCC[C@H](NC(=O)[C@@H](NC(=O)[C@H](CCCCNC(C)=O)NC(=O)[C@@H]1CSSC[C@H](NC(=O)[C@@H](NC(=O)[C@H](CC(=O)O)NC(=O)[C@H](Cc2ccccc2)NC(C)=O)C(C)C)C(=O)N[C@@H](CC(N)=O)C(=O)N[C@@H](CCCCNC(=O)COCC(=O)Nc2ccc(CCC(=O)N3CCC3=O)cc2)C(=O)N[C@@H](C(C)C)C(=O)N[C@@H]([C@@H](C)O)C(=O)N[C@@H](CC(C)C)C(=O)N2CCC[C@H]2C(=O)N[C@@H](Cc2cnc[nH]2)C(=O)N1)C(C)C)C(N)=O (Ac-FDVCNK(X1)VTLPHCK(Ac)VM-NH2; disulfide 4-12)	> 1000	> 1000		
CSCC[C@H](NC(=O)[C@@H](NC(=O)[C@H](CCCCNC(=O)COCC(=O)Nc1ccc(CCC(=O)N2CCC2=O)cc1)NC(=O)[C@@H]1CSSC[C@H](NC(=O)[C@@H](NC(=O)[C@H](CC(=O)O)NC(=O)[C@H](Cc2ccccc2)NC(C)=O)C(C)C)C(=O)N[C@@H](CC(N)=O)C(=O)N[C@@H](Cc2c[nH]c3ccccc23)C(=O)N[C@@H](C(C)C)C(=O)N[C@@H]([C@@H](C)O)C(=O)N[C@@H](CC(C)C)C(=O)N2CCC[C@H]2C(=O)N[C@@H](Cc2cnc[nH]2)C(=O)N1)C(C)C)C(N)=O (Ac-FDVCNWVTLPHCK(X1)VM-NH2; disulfide 4-12)	4	54	11	
CSCC[C@H](NC(=O)[C@@H](NC(=O)[C@H](CCCCNC(C)=O)NC(=O)[C@@H]1CSSC[C@H](NC(=O)[C@@H](NC(=O)[C@H](CC(=O)O)NC(=O)[C@H](Cc2ccccc2)NC(C)=O)C(C)C)C(=O)N[C@@H](CCCCNC(=O)COCC(=O)Nc2ccc(CCC(=O)N3CCC3=O)cc2)C(=O)N[C@@H](Cc2c[nH]c3ccccc23)C(=O)N[C@@H](C(C)C)C(=O)N[C@@H]([C@@H](C)O)C(=O)N[C@@H](CC(C)C)C(=O)N2CCC[C@H]2C(=O)N[C@@H](Cc2cnc[nH]2)C(=O)N1)C(C)C)C(N)=O (Ac-FDVCK(X1)WVTLPHCK(Ac)VM-NH2; disulfide 4-12)	6	624		
CC[C@H](C)[C@@H]1NC(=O)[C@H](Cc2ccc(O)cc2)NC(=O)[C@H](Cc2cnc[nH]2)NC(=O)[C@@H](NC(=O)[C@@H](NC(=O)[C@H](CCC(=O)O)NC(=O)[C@H](Cc2ccccc2)NC(C)=O)C(C)C)CSSC[C@@H](C(=O)N[C@@H](C(=O)N[C@H](CCCN=C(N)N)C(=O)N[C@H](Cc2ccc(O)cc2)C(N)=O)[C@@H](C)O)NC(=O)[C@H](Cc2cnc[nH]2)NC(=O)[C@@H]2CCCN2C(=O)[C@H](CC(C)C)NC(=O)[C@H](CCCCNC(=O)COCC(=O)Nc2ccc(CCC(=O)N3CCC3=O)cc2)NC1=O		0.2	23	
CSCC[C@H](NC(=O)[C@@H](NC(=O)[C@H](CCCCNC(C)=O)NC(=O)[C@@H]1CSSC[C@H](NC(=O)[C@@H](NC(=O)[C@H](CC(=O)O)NC(=O)[C@H](Cc2ccccc2)NC(C)=O)C(C)C)C(=O)N[C@@H](CC(N)=O)C(=O)N[C@@H](Cc2c[nH]c3ccccc23)C(=O)N[C@@H](C(C)C)C(=O)N[C@@H]([C@@H](C)O)C(=O)N[C@@H](CC(C)C)C(=O)N[C@@H](CCCCNC(=O)COCC(=O)Nc2ccc(CCC(=O)N3CCC3=O)cc2)C(=O)N[C@@H](Cc2cnc[nH]2)C(=O)N1)C(C)C)C(N)=O (Ac-FDVCNWVTLK(X1)HCK(Ac)VM-NH2; disulfide 4-12)	> 1000	> 1000		
CSCC[C@H](NC(=O)[C@@H](NC(=O)[C@H](CCCCN)NC(=O)[C@@H]1CSSC[C@H](NC(=O)[C@@H](NC(=O)[C@H](CC(=O)O)NC(=O)[C@H](Cc2ccccc2)NC(=O)COCC(=O)Nc2ccc(CCC(=O)N3CCC3=O)cc2)C(C)C)C(=O)N[C@@H](CCCCN)C(=O)N[C@@H](Cc2c[nH]c3ccccc23)C(=O)N[C@@H](C(C)C)C(=O)N[C@@H]([C@@H](C)O)C(=O)N[C@@H](CC(C)C)C(=O)N2CCC[C@H]2C(=O)N[C@@H](Cc2cnc[nH]2)C(=O)N1)C(C)C)C(N)=O (X1-FDVCKWVTLPHCKVM-NH2; disulfide 4-12)	200			1000
CC[C@H](C)[C@@H]1NC(=O)[C@H](Cc2ccc(O)cc2)NC(=O)[C@H](Cc2cnc[nH]2)NC(=O)[C@@H](NC(=O)[C@@H](NC(=O)[C@H](CCC(=O)O)NC(=O)[C@H](Cc2ccccc2)NC(C)=O)C(C)C)CSSC[C@@H](C(=O)N[C@H](C(=O)N[C@@H](CCCN=C(N)N)C(=O)N[C@@H](Cc2ccc(O)cc2)C(N)=O)[C@@H](C)O)NC(=O)[C@H](Cc2cnc[nH]2)NC(=O)[C@@H]2CCCN2C(=O)[C@H](CC(C)C)NC(=O)[C@H](CCCCNC(=O)COCC(=O)Nc2ccc(CCC(=O)N3CCC3=O)cc2)NC1=O	0.3	0.7	4	
CC[C@H](C)[C@@H]1NC(=O)[C@H](Cc2ccc(O)cc2)NC(=O)[C@H](Cc2cnc[nH]2)NC(=O)[C@@H](NC(=O)[C@@H](NC(=O)[C@H](CCC(=O)O)NC(=O)[C@H](Cc2ccccc2)NC(C)=O)C(C)C)CSSC[C@@H](C(=O)N[C@H](C(=O)N[C@@H](CCCN=C(N)N)C(=O)N[C@@H](Cc2ccc(O)cc2)C(N)=O)[C@@H](C)O)NC(=O)[C@H](Cc2cnc[nH]2)NC(=O)[C@@H]2CCCN2C(=O)[C@H](CC(C)C)NC(=O)[C@H](CCCN=C(N)N)NC1=O (Ac-FEVCHYIRLPHCTRY-NH2; disulfide 4-12)		400		
CSCC[C@H](NC(=O)[C@@H](NC(=O)[C@H](CCCCNC(C)=O)NC(=O)[C@@H]1CSSC[C@H](NC(=O)[C@@H](NC(=O)[C@H](CC(=O)O)NC(=O)[C@H](Cc2ccccc2)NC(C)=O)C(C)C)C(=O)N[C@@H](CC(N)=O)C(=O)N[C@@H](Cc2c[nH]c3ccccc23)C(=O)N[C@@H](CCCCNC(=O)COCC(=O)Nc2ccc(CCC(=O)N3CCC3=O)cc2)C(=O)N[C@@H]([C@@H](C)O)C(=O)N[C@@H](CC(C)C)C(=O)N2CCC[C@H]2C(=O)N[C@@H](Cc2cnc[nH]2)C(=O)N1)C(C)C)C(N)=O (Ac-FDVCNWK(X1)TLPHCK(Ac)VM-NH2; disulfide 4-12)	> 1000	> 1000		
CSCC[C@H](NC(=O)[C@@H](NC(=O)[C@H](CCCCN)NC(=O)[C@@H]1CSSC[C@H](NC(=O)[C@@H](NC(=O)[C@H](CC(=O)O)NC(=O)[C@H](Cc2ccccc2)NC(C)=O)C(C)C)C(=O)N[C@@H](CCCCN)C(=O)N[C@@H](Cc2c[nH]c3ccccc23)C(=O)N[C@@H](C(C)C)C(=O)NCC(=O)N[C@@H](CC(C)C)C(=O)N2CCC[C@H]2C(=O)N[C@@H](Cc2cnc[nH]2)C(=O)N1)C(C)C)C(N)=O (Ac-FDVCKWVGLPHCKVM-NH2; disulfide 4-12)				6000
CSCC[C@H](NC(=O)[C@H](CCCCN)NC(=O)[C@@H]1CSSC[C@H](NC(=O)[C@@H](NC(=O)[C@H](CC(=O)O)NC(=O)[C@H](Cc2ccccc2)NC(C)=O)C(C)C)C(=O)N[C@@H](CC(N)=O)C(=O)N[C@@H](Cc2c[nH]c3ccccc23)C(=O)N[C@@H](C(C)C)C(=O)N[C@@H]([C@@H](C)O)C(=O)N[C@@H](CC(C)C)C(=O)N2CCC[C@H]2C(=O)N[C@@H](Cc2cnc[nH]2)C(=O)N1)C(=O)N[C@@H](CCCC(N)=O)C(N)=O (Ac-FDVCNWVTLPHCKM[Aad](NH2)-NH2; disulfide 4-12)				1000
CSCC[C@H](NC(=O)[C@@H](NC(=O)[C@H](CCCCNC(C)=O)NC(=O)[C@@H]1CSSC[C@H](NC(=O)[C@H](CCCCNC(=O)COCC(=O)Nc2ccc(CCC(=O)N3CCC3=O)cc2)NC(=O)[C@H](CC(=O)O)NC(=O)[C@H](Cc2ccccc2)NC(C)=O)C(=O)N[C@@H](CC(N)=O)C(=O)N[C@@H](Cc2c[nH]c3ccccc23)C(=O)N[C@@H](C(C)C)C(=O)N[C@@H]([C@@H](C)O)C(=O)N[C@@H](CC(C)C)C(=O)N2CCC[C@H]2C(=O)N[C@@H](Cc2cnc[nH]2)C(=O)N1)C(C)C)C(N)=O (Ac-FDK(X1)CNWVTLPHCK(Ac)VM-NH2; disulfide 4-12)	> 1000	> 1000		
CSCC[C@H](NC(=O)[C@@H](NC(=O)[C@H](CCCCNC(C)=O)NC(=O)[C@@H]1CSSC[C@H](NC(=O)[C@@H](NC(=O)[C@H](CC(=O)O)NC(=O)[C@H](Cc2ccccc2)NC(C)=O)C(C)C)C(=O)N[C@@H](CC(N)=O)C(=O)N[C@@H](Cc2c[nH]c3ccccc23)C(=O)N[C@@H](C(C)C)C(=O)N[C@@H]([C@@H](C)O)C(=O)N[C@@H](CCCCNC(=O)COCC(=O)Nc2ccc(CCC(=O)N3CCC3=O)cc2)C(=O)N2CCC[C@H]2C(=O)N[C@@H](Cc2cnc[nH]2)C(=O)N1)C(C)C)C(N)=O (Ac-FDVCNWVTK(X1)PHCK(Ac)VM-NH2; disulfide 4-12)	> 1000	> 1000		
CSCC[C@H](NC(=O)[C@@H](NC(=O)[C@H](CCCCN)NC(=O)[C@@H]1CSSC[C@H](NC(=O)[C@@H](NC(=O)[C@H](CC(=O)O)NC(=O)[C@H](Cc2ccccc2)NC(C)=O)C(C)C)C(=O)N[C@@H](CCCCN)C(=O)N[C@@H](Cc2c[nH]c3ccccc23)C(=O)N[C@@H](C(C)C)C(=O)N[C@@H]([C@@H](C)O)C(=O)N[C@@H](CC(C)C)C(=O)N2CCC[C@H]2C(=O)N[C@@H](Cc2cnc[nH]2)C(=O)N1)C(C)C)C(N)=O (Ac-FDVCKWVTLPHCKVM-NH2; disulfide 4-12)	1000			1000
